According to publication doi:10.1101/2019.12.17.868638v2 (biorxiv, 2019):

System: RlSQase* (sulfoquinovosidase, K375A/K376A SERp variant)
Details: 50 mM sodium phosphate, 150 mM NaCl, pH 7.2, 30 °C, 212 nM enzyme

Work on O=[N+]([O-])c1ccc(O[C@H]2O[C@H](CS(=O)(=O)O)[C@@H](O)[C@H](O)[C@H]2O)cc1 [PNPSQ] yielded a Km of 680 ± 250 µM.
